Measurements reported in ChEMBL document CHEMBL5303762, “Data for DCP probe BI-8668” (2023).
Calls of active or inactive are those of the source. The calls are words filed in the database; no cut-off is given here.

Legend:
[1] = target: Amiloride-sensitive sodium channel, ENaC (Homo sapiens, UniProt P37088+P51168+P51170); test: Inhibition of Na+ current by Ussing Chamber; format: functional, tissue-based, epithelium
[2] = target: Muscarinic acetylcholine receptor M3 (Homo sapiens) (UniProt P20309); test: M3/H Eurofins SafetyScreen44 (BI); conditions: Compound concentration 10.0 uM
[3] = target: T1, Muscarinic acetylcholine receptor M2 (Homo sapiens) (UniProt P08172); test: M2/H Eurofins SafetyScreen44 (BI); conditions: filed as antagonist, Compound concentration 10.0 uM
T1 sequence (whole entry): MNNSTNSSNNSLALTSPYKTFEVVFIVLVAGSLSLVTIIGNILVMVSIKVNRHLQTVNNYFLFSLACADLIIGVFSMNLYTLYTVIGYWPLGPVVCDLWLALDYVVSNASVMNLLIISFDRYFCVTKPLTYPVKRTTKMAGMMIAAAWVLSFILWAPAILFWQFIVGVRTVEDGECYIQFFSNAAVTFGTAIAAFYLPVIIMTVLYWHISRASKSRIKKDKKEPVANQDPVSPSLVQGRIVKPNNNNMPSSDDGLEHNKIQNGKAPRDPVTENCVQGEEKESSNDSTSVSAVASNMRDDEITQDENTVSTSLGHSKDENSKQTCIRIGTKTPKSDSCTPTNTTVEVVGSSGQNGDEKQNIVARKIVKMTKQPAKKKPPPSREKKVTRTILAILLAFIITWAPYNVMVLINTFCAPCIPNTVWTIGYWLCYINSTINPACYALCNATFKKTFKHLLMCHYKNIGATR

[4] = target: L-type calcium channel alpha-1C (dihydropyridine site) (Rattus norvegicus, UniProt P22002); test: CA+/DHPSI/R Eurofins SafetyScreen44 (BI); conditions: compound concentration 10 uM, read-out: % Ctrl
[5] = target: hERG (KCNH2) (Homo sapiens, UniProt Q12809); test: HERG_DOFETILIDE Eurofins SafetyScreen44 (BI); conditions: probe dofetilide, compound concentration 10 uM, read-out: % Ctrl
[6] = target: Beta-2 adrenergic receptor (Homo sapiens) (UniProt P07550); test: BETA2/HUM Eurofins SafetyScreen44 (BI); conditions: filed as antagonist, Compound concentration 10.0 uM
[7] = target: Delta-type opioid receptor (Homo sapiens) (UniProt P41143); test: DELTA2/H Eurofins SafetyScreen44 (BI); conditions: Compound concentration 10.0 uM
[8] = target: Tyrosine-protein kinase Lck (Homo sapiens) (UniProt P06239); test: LCK_CE Eurofins SafetyScreen44 (BI); conditions: Compound concentration 10.0 uM
[9] = target: Sodium-dependent serotonin transporter (Homo sapiens) (UniProt P31645); test: SLC6A4/H Eurofins SafetyScreen44 (BI); conditions: filed as antagonist, Compound concentration 10.0 uM
[10] = target: 3',5'-cyclic-AMP phosphodiesterase 4D (Homo sapiens) (UniProt Q08499); test: PDE4D2 Eurofins SafetyScreen44 (BI); conditions: Compound concentration 10.0 uM
[11] = target: T2, 5-hydroxytryptamine receptor 3A (Homo sapiens) (UniProt P46098); test: 5HT3/H Eurofins SafetyScreen44 (BI); conditions: Compound concentration 10.0 uM
T2 sequence (whole entry): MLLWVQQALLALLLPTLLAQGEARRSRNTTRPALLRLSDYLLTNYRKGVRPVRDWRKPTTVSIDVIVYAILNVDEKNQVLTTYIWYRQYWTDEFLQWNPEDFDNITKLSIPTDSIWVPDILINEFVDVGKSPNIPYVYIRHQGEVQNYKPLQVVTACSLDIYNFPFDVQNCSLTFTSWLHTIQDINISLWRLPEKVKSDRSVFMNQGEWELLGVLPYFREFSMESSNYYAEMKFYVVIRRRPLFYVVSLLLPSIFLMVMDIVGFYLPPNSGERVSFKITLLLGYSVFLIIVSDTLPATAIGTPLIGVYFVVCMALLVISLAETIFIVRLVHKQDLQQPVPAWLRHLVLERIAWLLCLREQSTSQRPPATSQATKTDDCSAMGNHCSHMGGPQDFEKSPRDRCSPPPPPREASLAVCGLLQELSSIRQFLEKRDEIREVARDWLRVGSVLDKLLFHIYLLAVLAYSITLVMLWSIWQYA

[12] = target: Histamine H1 receptor (Homo sapiens) (UniProt P35367); test: H1/PYRIL/HS Eurofins SafetyScreen44 (BI); conditions: Compound concentration 10.0 uM
[13] = target: Neuronal acetylcholine receptor; alpha4/beta2 (Homo sapiens) (UniProt P17787+P43681); test: N_NEURO_A4B2 Eurofins SafetyScreen44 (BI); format: protein-complex assay; conditions: filed as agonist, Compound concentration 10.0 uM
[14] = target: D(1A) dopamine receptor (Homo sapiens) (UniProt P21728); test: D1/H Eurofins SafetyScreen44 (BI); conditions: filed as antagonist, Compound concentration 10.0 uM
[15] = target: Sodium-dependent noradrenaline transporter (Homo sapiens) (UniProt P23975); test: NEUP/H Eurofins SafetyScreen44 (BI); conditions: Compound concentration 10.0 uM
[16] = target: Glutamate NMDA receptor (Rattus norvegicus) (UniProt P35439+Q00959+Q00960+Q00961+Q62645+Q8VHN2+Q9R1M7); test: NMDA/R Eurofins SafetyScreen44 (BI); format: protein-complex assay; conditions: Compound concentration 10.0 uM
[17] = target: Androgen receptor (Homo sapiens) (UniProt P10275); test: ANDROGEN/H Eurofins SafetyScreen44 (BI); conditions: Compound concentration 10.0 uM
[18] = target: Prostaglandin G/H synthase 1 (Homo sapiens) (UniProt P23219); test: COX1_HU Eurofins SafetyScreen44 (BI); conditions: Compound concentration 10.0 uM
[19] = target: Vasopressin V1a receptor (Homo sapiens) (UniProt P37288); test: V1A/HUM Eurofins SafetyScreen44 (BI); conditions: Compound concentration 10.0 uM
[20] = target: Glucocorticoid receptor (Homo sapiens) (UniProt P04150); test: GCORTICOID/H Eurofins SafetyScreen44 (BI); conditions: Compound concentration 10.0 uM
[21] = target: GABA-A receptor; anion channel (Rattus norvegicus) (UniProt O09028+P15431+P18506+P18508+P19969+P20236+P23574+P23576+P28471+P28473+P30191+P62813+P63079+P63138+Q91ZM7+Q9ES14); test: BZD/CENTR/R Eurofins SafetyScreen44 (BI); format: protein-complex assay; conditions: Compound concentration 10.0 uM
[22] = target: T3, 5-hydroxytryptamine receptor 1A (Homo sapiens) (UniProt P08908); conditions: Compound concentration 10.0 uM
T3 sequence (whole entry): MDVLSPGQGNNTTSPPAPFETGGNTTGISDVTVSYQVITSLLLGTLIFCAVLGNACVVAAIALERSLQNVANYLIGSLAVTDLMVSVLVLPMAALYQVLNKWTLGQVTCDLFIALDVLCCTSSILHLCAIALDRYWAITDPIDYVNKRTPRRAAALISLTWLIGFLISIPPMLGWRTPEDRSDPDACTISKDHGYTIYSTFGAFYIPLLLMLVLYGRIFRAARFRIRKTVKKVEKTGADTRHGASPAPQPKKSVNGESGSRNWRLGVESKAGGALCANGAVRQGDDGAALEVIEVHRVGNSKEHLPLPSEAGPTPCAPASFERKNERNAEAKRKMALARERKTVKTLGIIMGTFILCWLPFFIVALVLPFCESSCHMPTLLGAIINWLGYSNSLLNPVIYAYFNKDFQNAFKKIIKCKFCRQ

[23] = target: 5-hydroxytryptamine receptor 7 (Homo sapiens) (UniProt P34969); conditions: Compound concentration 10.0 uM
[24] = target: T1, Muscarinic acetylcholine receptor M2 (Homo sapiens); conditions: Compound concentration 10.0 uM

Chain of Sodium-dependent serotonin transporter (Homo sapiens) (P31645 whole entry, looked up): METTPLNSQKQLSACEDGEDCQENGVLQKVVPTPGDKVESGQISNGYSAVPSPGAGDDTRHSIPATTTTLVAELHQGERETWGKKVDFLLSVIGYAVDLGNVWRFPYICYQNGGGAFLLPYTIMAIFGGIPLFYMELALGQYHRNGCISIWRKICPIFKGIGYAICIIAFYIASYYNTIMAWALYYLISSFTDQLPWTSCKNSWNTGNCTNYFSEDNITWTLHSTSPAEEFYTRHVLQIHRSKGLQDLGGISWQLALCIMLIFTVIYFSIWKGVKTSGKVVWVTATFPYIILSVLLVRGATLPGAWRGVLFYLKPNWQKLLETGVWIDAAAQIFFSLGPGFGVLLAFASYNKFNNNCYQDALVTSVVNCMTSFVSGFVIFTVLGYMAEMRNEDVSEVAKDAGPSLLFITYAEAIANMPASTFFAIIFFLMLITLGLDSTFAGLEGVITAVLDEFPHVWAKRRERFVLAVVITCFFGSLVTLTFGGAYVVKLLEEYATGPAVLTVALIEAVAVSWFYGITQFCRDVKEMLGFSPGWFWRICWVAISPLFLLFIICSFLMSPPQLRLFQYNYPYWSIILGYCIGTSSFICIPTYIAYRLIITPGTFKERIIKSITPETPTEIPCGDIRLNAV
Chain of hERG (KCNH2) (Q12809 whole entry): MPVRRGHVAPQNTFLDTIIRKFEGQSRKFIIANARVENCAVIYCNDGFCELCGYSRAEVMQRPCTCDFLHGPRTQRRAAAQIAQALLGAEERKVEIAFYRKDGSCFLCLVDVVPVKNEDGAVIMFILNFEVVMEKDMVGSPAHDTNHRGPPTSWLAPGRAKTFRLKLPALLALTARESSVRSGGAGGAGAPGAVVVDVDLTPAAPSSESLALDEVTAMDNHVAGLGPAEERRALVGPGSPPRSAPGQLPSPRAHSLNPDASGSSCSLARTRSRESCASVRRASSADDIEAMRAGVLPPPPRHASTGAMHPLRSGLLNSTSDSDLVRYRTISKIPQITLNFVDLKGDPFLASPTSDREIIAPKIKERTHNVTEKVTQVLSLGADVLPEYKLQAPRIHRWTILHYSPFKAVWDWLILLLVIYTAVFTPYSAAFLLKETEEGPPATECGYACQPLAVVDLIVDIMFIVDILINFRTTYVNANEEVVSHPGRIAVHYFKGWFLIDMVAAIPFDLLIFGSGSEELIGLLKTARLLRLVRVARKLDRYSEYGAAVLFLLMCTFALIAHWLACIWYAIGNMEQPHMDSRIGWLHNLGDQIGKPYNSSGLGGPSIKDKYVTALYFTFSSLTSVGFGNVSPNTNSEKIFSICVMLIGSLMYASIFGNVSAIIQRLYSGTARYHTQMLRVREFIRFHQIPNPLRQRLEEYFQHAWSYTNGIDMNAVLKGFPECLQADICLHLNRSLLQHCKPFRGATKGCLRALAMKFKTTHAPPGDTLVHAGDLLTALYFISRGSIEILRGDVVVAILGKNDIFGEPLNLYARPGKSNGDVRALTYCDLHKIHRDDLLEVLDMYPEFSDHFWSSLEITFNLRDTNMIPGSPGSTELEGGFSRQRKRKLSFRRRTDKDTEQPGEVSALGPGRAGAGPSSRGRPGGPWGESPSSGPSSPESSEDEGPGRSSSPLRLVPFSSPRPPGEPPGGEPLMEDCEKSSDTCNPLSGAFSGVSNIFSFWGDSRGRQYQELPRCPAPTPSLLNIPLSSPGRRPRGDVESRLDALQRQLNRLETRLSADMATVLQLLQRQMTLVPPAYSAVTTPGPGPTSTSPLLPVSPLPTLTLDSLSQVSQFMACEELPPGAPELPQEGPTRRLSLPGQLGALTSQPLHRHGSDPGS
Chain of 3',5'-cyclic-AMP phosphodiesterase 4D (Homo sapiens) (Q08499 whole entry): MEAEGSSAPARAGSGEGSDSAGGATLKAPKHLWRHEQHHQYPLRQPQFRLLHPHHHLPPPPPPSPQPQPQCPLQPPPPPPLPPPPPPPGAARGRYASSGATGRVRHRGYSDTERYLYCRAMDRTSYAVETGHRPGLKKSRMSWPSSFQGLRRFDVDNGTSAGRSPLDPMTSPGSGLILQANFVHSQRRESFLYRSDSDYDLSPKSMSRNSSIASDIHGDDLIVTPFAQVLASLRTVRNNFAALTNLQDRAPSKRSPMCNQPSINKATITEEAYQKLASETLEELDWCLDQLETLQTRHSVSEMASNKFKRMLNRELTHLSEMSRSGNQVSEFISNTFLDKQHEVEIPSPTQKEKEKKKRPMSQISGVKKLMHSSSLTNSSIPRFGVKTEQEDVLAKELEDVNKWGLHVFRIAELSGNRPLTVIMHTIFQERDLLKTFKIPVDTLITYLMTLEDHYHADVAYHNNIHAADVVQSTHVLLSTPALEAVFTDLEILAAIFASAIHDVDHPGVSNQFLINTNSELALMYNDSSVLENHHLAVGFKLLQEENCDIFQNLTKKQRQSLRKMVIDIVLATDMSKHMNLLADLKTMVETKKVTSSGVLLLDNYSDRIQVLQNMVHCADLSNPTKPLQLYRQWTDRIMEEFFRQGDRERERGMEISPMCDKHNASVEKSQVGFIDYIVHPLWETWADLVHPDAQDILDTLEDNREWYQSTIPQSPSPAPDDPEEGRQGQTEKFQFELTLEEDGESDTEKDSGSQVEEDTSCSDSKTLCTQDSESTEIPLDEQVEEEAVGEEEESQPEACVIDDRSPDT
Chain of Muscarinic acetylcholine receptor M3 (Homo sapiens) (P20309 whole entry, looked up): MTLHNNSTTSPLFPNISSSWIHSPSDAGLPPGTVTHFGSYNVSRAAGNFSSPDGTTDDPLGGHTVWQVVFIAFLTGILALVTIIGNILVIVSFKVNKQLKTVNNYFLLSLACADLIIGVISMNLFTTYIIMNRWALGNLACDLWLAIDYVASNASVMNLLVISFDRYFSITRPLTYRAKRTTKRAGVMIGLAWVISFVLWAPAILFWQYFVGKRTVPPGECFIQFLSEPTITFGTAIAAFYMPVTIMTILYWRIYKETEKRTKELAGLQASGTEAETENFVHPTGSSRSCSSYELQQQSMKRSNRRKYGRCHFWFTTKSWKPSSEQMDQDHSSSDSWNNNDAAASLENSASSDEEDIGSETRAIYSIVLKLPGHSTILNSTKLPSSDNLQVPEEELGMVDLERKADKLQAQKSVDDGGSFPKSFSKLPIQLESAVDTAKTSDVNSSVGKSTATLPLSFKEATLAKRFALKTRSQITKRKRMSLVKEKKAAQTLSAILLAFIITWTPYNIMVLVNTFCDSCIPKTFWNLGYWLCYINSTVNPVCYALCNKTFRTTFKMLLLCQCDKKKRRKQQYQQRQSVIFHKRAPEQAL
Chain of Tyrosine-protein kinase Lck (Homo sapiens) (P06239 2-509 limits assumed): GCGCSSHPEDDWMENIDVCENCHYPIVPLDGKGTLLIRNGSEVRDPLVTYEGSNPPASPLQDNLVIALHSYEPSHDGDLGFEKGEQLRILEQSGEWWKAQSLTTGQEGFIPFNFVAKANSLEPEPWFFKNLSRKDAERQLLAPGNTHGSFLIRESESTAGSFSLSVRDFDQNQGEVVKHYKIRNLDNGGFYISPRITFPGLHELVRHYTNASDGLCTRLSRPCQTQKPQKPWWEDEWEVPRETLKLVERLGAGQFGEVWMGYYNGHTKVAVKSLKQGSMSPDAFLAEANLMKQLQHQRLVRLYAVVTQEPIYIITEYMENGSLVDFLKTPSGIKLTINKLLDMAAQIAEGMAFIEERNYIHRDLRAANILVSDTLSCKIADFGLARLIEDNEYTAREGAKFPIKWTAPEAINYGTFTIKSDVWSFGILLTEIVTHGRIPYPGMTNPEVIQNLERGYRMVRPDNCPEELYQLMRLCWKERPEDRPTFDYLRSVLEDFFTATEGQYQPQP
Chain of 5-hydroxytryptamine receptor 7 (Homo sapiens) (P34969 whole entry): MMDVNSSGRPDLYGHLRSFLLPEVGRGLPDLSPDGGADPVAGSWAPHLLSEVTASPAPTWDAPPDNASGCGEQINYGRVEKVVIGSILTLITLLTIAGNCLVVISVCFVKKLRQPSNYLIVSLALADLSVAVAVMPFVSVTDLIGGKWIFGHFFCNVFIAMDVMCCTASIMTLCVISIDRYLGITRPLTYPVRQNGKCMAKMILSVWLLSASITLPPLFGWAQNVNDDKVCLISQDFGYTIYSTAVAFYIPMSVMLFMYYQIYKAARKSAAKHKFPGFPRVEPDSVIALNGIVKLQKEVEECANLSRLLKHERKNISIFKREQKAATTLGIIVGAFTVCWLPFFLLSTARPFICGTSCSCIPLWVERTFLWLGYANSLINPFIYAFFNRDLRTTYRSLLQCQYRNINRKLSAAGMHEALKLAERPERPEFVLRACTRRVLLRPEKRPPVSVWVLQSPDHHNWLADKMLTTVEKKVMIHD
Chain of Vasopressin V1a receptor (Homo sapiens) (P37288 whole entry, looked up): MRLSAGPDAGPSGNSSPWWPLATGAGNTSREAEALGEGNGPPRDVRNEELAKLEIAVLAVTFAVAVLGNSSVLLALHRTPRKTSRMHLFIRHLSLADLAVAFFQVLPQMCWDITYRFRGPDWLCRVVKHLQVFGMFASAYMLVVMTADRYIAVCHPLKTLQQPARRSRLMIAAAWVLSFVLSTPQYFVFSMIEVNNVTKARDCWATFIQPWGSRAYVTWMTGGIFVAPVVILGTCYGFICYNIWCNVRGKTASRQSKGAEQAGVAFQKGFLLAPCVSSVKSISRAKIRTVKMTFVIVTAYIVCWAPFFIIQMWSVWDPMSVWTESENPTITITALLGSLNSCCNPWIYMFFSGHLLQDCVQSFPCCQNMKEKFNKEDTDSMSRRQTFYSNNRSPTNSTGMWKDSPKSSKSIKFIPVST
Chain of Delta-type opioid receptor (Homo sapiens) (P41143 whole entry): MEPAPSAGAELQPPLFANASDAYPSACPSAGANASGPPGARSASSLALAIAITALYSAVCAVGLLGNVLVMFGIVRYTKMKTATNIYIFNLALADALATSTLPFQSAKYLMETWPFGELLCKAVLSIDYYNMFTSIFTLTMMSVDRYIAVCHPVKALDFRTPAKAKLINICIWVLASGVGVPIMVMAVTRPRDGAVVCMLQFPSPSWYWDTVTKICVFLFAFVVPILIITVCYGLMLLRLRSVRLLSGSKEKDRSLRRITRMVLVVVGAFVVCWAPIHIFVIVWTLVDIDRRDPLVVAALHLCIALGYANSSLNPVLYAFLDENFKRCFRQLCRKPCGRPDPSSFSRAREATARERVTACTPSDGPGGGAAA

SMILES | IC50 [1] | residual activity [2] | residual activity [3] | activity at 10 µM [4] | activity at 10 µM [5] | residual activity [6] | residual activity [7] | residual activity [8] | residual activity [9] | residual activity [10] | residual activity [11] | residual activity [12] | residual activity [13] | residual activity [14] | residual activity [15] | residual activity [16] | residual activity [17] | residual activity [19] | residual activity [20] | residual activity [21] | also measured
CCn1c(CNC(=O)c2nc(Cl)cnc2N)[n+](CC)c2ccc(C(=O)N(C)CCN(C)C)cc21 | 0.017 µM (active) | 20% | 36% | 89% (not active) | 91% (not active) | 94% | 95% | 95% | 97% | 99% | 101% | 101% | 101% | 103% | 105% | 105% | 106% | 109% | 115% | 130% | residual activity [18]: 106%; inhibition [22]: -4.21%; inhibition [23]: 4.76%; inhibition [24]: 44.6%
CCn1c(CNC(=O)c2ncc(C)nc2N)[n+](CC)c2ccc(C(=O)N(C)CN(C)C)cc21 | > 10 µM (not active) | 35% | 41% | 87% (not active) | 81% (not active) | 104% | 97% | 60% | 31% | 87% | 99% | 94% | 103% | 102% | 91% | 100% | 99% | 107% | 97% | 96% | –
